# Test results published in US10822317B2, “Methods and compositions for wound healing” (QBiotics Limited, priority 2013, dated 2020).
# Legend:
# [1] = system: human neonatal fibroblasts; experiment: Scratch closure, human neonatal fibroblasts, Method 3 (IncuCyte); type: cell-based
# Protocol: The ability of early. passage neonatal foreskin fibroblasts (NFF) cultured in RPMI 1640-10% foetal calf serum to migrate across a scratch wound made in a confluent monolayer following treatment with purified compounds or plant extracts was determined using one or more of the following three methods.
# Cells were seeded and treated in 96-well plates as in Method 2 (5 replicate wells per dilution), except that the scratches were made in one action with a tool having 96, 1 mm thick teflon coated pins (Essen Bioscience Woundmaker). The plate was then placed in a 37° C., 5% CO2 humidified atmosphere in an IncuCyte FLR instrument programmed to photograph each well under phase contrast at 3 hr intervals for 42 hours. The software determined the initial scratch boundaries and their rate of closure. Accelerated wound closure was considered to be significant if the initial rate of closure was >10% of the untreated controls.
# mouse skin = experiment: Acute inflammatory response in mouse skin; type: in vivo; conditions: male nude mice, s.c. 50 μL of 100 μg/mL; for scarring of the healed site: 14 days; for diameter of affected area of skin: by 24 hr
# Protocol: Male nude mice were injected subcutaneously on each flank with 50 μL of solutions of 100 μg/mL of Compounds 1, 2, 5 and 42 respectively in 20% propylene glycol. Each site reddened within 4 hr and by 24 hr the affected area covered approximately 1 cm diameter of skin.
# [2] = system: human neonatal fibroblasts; experiment: Matrigel invasion assay for migratory ability; type: cell-based; conditions: for Cell count as % of control (Control = no compounds added): 30 ng/mL, 24 hrs, fibroblasts starved 2 days, 1% foetal calf serum, ± standard deviation, two replicate experiments
# Text: Matrigel invasion chambers provide cells with the conditions that allow assessment of their invasive property in vitro. The Matrigel invasion chambers consists of a cell culture companion plate with cell culture inserts containing an 8 micron pore size PET membrane with a thin layer of Matrigel Basement Membrane Matrix. The Matrigel matrix serves as a reconstituted basement membrane in vitro. The layer occludes the pores of the membrane, blocking non-invasive cells from migrating through the membrane. In contrast, invasive cells are able to detach themselves from and invade through the Matrigel matrix and the 8 micron membrane pores. The membrane may be processed for light and electron microscopy and can be easily removed after staining.
# The chambers were used according to the manufacturer's instructions, as described below in two studies, to assess the effects of Compounds 1, 2, 5 and 42 on migration of human neonatal fibroblasts. The first study assessed effects of three concentrations (0, 10 and 30 ng/mL) of Compound 1 on neonatal fibroblasts in wells containing media with 10% foetal calf serum. The second study used two concentrations (0 and 30 ng/mL) for each of Compounds 1, 2, 5 and 42 to examine effects on migration of neonatal fibroblasts starved for 2 days prior to treatment and then transferred to media with 1% foetal calf serum.
# The package containing the chambers was removed from −20° C. storage and allowed to come to room temperature. Warm (37° C.) bicarbonate based culture medium was added to the interior of the inserts (500 μL) and bottom of wells (750 μL). The chambers containing the Matrigel were allowed to rehydrate for 2 hours in humidified tissue culture incubator, 37° C., 5% CO2 atmosphere. After rehydration, the medium was carefully removed by aspiration without disturbing the layer of Matrigel™ Matrix on the membrane.
# Cells were harvested, and resuspended at 20,000 cells per mL. A total of 250 μL of the cell suspension was placed into the interior of the insert (5,000 cells). An extra 250 μL media containing the respective Compounds was then added to the interior of the insert to give the desired final concentrations for each of the two studies. A total of 750 μL of media containing appropriate concentrations of each compound in each treatment were placed in the well under the appropriate insert. The Matrigel chambers were then incubated for 24 hours in a humidified tissue culture incubator, at 37° C., 5% CO2 atmosphere.
# Non-invading cells were removed from the upper surface of the membrane by “scrubbing”. A cotton tipped swab was dipped into the insert after removal of the media, and firm pressure applied while the tip was moved over the membrane surface. The scrubbing was repeated with a second swab moistened with PBS. Cells that had invaded to the external surface of the insert were then fixed by placing in […] of 100% methanol for at least 5 mins. Inserts were then transferred to a companion plate containing 500 μL of 0.1% crystal violet in methanol, and stained for at least 15 mins. Inserts were destained by passage through 3 companion plates containing 500 μL water, before being air dried.
# The following day, the membrane was removed from the insert housing by inverting the insert and inserting the tip of a sharp scalpel blade through the membrane at the edge adjacent to the housing wall. The insert housing was rotated against the stationary blade and the membrane was released. […]
# [3] = system: human peripheral blood mononuclear cells (PBMCs); experiment: Cytokine production by PBMCs (Cytometric Bead Array); type: cell-based; conditions: 24 hr, ± standard deviation
# Text: Specific cytokines play critical roles in wound healing processes, and agents that modulate these substances may be useful in treating wounds and/or improving the cosmetic outcomes of healing (e.g. reduced scarring). The effects of Compounds 1, 2, 5 and 42 on regulation of four cytokines (IL-1β, IL-6, IL-8 and TNFα) known to be critical in early stages of the wound healing process were investigated in human peripheral blood mononuclear cells (PBMCs).
# PBMCs were isolated by Ficoll-Paque sedimentation of heparinised blood acquired from both a person (Donor 1) and (Donor 2) human donor. All cells were cultured in 10% FCS, RPMI as detailed previously.
# PBMCs were seeded at a density of 1.5×10^5 cells per well in 10% FCS, RPMI. Stimulation of these cells with the four compounds was performed at four concentrations (0 ng/mL, 3 ng/mL, 30 ng/mL, 300 ng/mL) in duplicate for 24 h in a humidified incubator at 37° C., 5% CO2. Media samples were taken from each of the required wells and frozen at −80° C. until use.
# Cytometric Bead Array (CBA) assays were used to measure the results. CBA assays provide a method for capturing a soluble analyte or set of analytes using antibody coated beads of known sizes and fluorescence. Detection is then performed using another fluorescently labelled secondary antibody to form a sandwich complex. Each media sample was assayed for the presence of soluble […], IL-6, IL-8, IL-10, IL-12p70 and TNFα using a BD (Becton Dickinson) CBA Human Inflammatory Cytokine Detection Kit according to manufacturers' instructions. Mean fluorescence intensity values from each sample were compared against a standard curve to determine cytokine concentrations (pg/mL).
compound,measurement,setting,value
"CCC(C)C(=O)OC1C(C)C2(O)C(C3OC3(CO)C(O)C3(O)C(=O)C(C)=CC32)C2C(C)(C)C12OC(=O)C(C)CC (stereo not shown) [Compound 2, 12,13-di-(2-methylbutanoyl)-6,7-epoxy-4,5,9,12,13,20-hexahydroxy-1-tigliaen-3-one]",% closure compared to control,[1]; 30 ng/mL,147%
same,scarring of the healed site,mouse skin,minimal scarring
same,diameter of affected area of skin,mouse skin,approximately 1 cm
same,Cell count as % of control (Control = no compounds added),[2],366 ± 122%
same,IL-1β level,"[3]; Donor 1, 3 ng/mL",1.4 ± 1.2 pg/mL
same,IL-6 level,"[3]; Donor 1, 3 ng/mL",9.1 ± 0.2 pg/mL
same,IL-8 level,"[3]; Donor 1, 3 ng/mL",2099 ± 585 pg/mL
same,TNFα level,"[3]; Donor 1, 3 ng/mL",31.15 ± 6.9 pg/mL
same,IL-1β level,"[3]; Donor 1, 30 ng/mL",1.21 ± 0.4 pg/mL
same,IL-6 level,"[3]; Donor 1, 30 ng/mL",38 ± 3.9 pg/mL
same,IL-8 level,"[3]; Donor 1, 30 ng/mL",18229 ± 2592 pg/mL
same,TNFα level,"[3]; Donor 1, 30 ng/mL",314.07 ± 37.9 pg/mL
same,IL-1β level,"[3]; Donor 1, 300 ng/mL",37.7 ± 4.6 pg/mL
same,IL-6 level,"[3]; Donor 1, 300 ng/mL",84.1 ± 3.6 pg/mL
same,IL-8 level,"[3]; Donor 1, 300 ng/mL",16634 ± 625 pg/mL
same,TNFα level,"[3]; Donor 1, 300 ng/mL",330.0 ± 28.7 pg/mL
same,IL-1β level,"[3]; Donor 2, 3 ng/mL",6.7 ± 1.5 pg/mL
same,IL-6 level,"[3]; Donor 2, 3 ng/mL",14.9 ± 1.1 pg/mL
same,IL-8 level,"[3]; Donor 2, 3 ng/mL",2608 ± 309 pg/mL
same,TNFα level,"[3]; Donor 2, 3 ng/mL",27.3 ± 8.3 pg/mL
same,IL-1β level,"[3]; Donor 2, 30 ng/mL",52.6 ± 5.0 pg/mL
same,IL-6 level,"[3]; Donor 2, 30 ng/mL",14.5 ± 3.3 pg/mL
same,IL-8 level,"[3]; Donor 2, 30 ng/mL",26401 ± 271 pg/mL
same,TNFα level,"[3]; Donor 2, 30 ng/mL",211.5 ± 12.4 pg/mL
same,IL-1β level,"[3]; Donor 2, 300 ng/mL",123.9 ± 1.0 pg/mL
same,IL-6 level,"[3]; Donor 2, 300 ng/mL",41.4 ± 2.3 pg/mL
same,IL-8 level,"[3]; Donor 2, 300 ng/mL",34117 ± 630 pg/mL
same,TNFα level,"[3]; Donor 2, 300 ng/mL",618.1 ± 63.7 pg/mL
"CC=C(C)C(=O)OC1C(C)C2(O)C(C3OC3(CO)C(O)C3(O)C(=O)C(C)=CC32)C2C(C)(C)C12OC(=O)C(C)CC (stereo not shown) [Compound 1, 12-tigloyl-13-(2-methylbutanoyl)-6,7-epoxy-4,5,9,12,13,20-hexahydroxy-1-tigliaen-3-one]",% closure compared to control,[1]; 30 ng/mL,150%
same,% closure compared to control,[1]; 100 ng/mL,160%
same,scarring of the healed site,mouse skin,minimal scarring
same,diameter of affected area of skin,mouse skin,approximately 1 cm
same,Cell count as % of control (Control = no compounds added),[2],356 ± 141%
same,migratory ability in the Matrigel invasion chamber system vs vehicle alone,"[2]; first study, 10 or 30 ng/mL, 10% foetal calf serum, 24 hours",increased migratory ability
same,IL-1β level,"[3]; Donor 1, 3 ng/mL",1.2 ± 0.2 pg/mL
same,IL-6 level,"[3]; Donor 1, 3 ng/mL",9.7 ± 1.2 pg/mL
same,IL-8 level,"[3]; Donor 1, 3 ng/mL",1720 ± 157 pg/mL
same,TNFα level,"[3]; Donor 1, 3 ng/mL",24.3 ± 1.4 pg/mL
same,IL-1β level,"[3]; Donor 1, 30 ng/mL",11.9 ± 0.8 pg/mL
same,IL-6 level,"[3]; Donor 1, 30 ng/mL",34.2 ± 1.1 pg/mL
same,IL-8 level,"[3]; Donor 1, 30 ng/mL",16920 ± 1198 pg/mL
same,TNFα level,"[3]; Donor 1, 30 ng/mL",324.4 ± 0.0 pg/mL
same,IL-1β level,"[3]; Donor 1, 300 ng/mL",39 ± 0.2 pg/mL
same,IL-6 level,"[3]; Donor 1, 300 ng/mL",89.5 ± 13.8 pg/mL
same,IL-8 level,"[3]; Donor 1, 300 ng/mL",16419 ± 40 pg/mL
same,TNFα level,"[3]; Donor 1, 300 ng/mL",355.0 ± 4.3 pg/mL
same,IL-1β level,"[3]; Donor 2, 3 ng/mL",3.1 ± 0.9 pg/mL
same,IL-6 level,"[3]; Donor 2, 3 ng/mL",8.3 ± 0.4 pg/mL
same,IL-8 level,"[3]; Donor 2, 3 ng/mL",1493 ± 2 pg/mL
same,TNFα level,"[3]; Donor 2, 3 ng/mL",11.2 ± 0.3 pg/mL
same,IL-1β level,"[3]; Donor 2, 30 ng/mL",43.9 ± 1.7 pg/mL
same,IL-6 level,"[3]; Donor 2, 30 ng/mL",12.6 ± 0.9 pg/mL
same,IL-8 level,"[3]; Donor 2, 30 ng/mL",24078 ± 815 pg/mL
same,TNFα level,"[3]; Donor 2, 30 ng/mL",209.6 ± 7.5 pg/mL
same,IL-1β level,"[3]; Donor 2, 300 ng/mL",121.6 ± 5.6 pg/mL
same,IL-6 level,"[3]; Donor 2, 300 ng/mL",38.8 ± 9.0 pg/mL
same,IL-8 level,"[3]; Donor 2, 300 ng/mL",32021 ± 1156 pg/mL
same,TNFα level,"[3]; Donor 2, 300 ng/mL",592.2 ± 24.7 pg/mL
